Test results reported in patent publication US9586907B2, “Isothiocyanate compounds, pharmaceutical compositions, and uses thereof” (priority 2006, dated 2017).
Values after ≈ are worked out from the molar mass of the structure shown. Read-outs that look alike come from different tables or passages of the source.

Columns and labels:
[1] = tested on: Pseudomonas aeruginosa BK12348; assay: MIC, Pseudomonas aeruginosa BK12348
[2] = tested on: Bacillus subtilis BK11590; assay: MIC, Bacillus subtilis BK11590; assay type: cell-based; conditions: Gram +, 24 hours of incubation
M. avium = assay: MIC, M. avium; assay type: cell-based; conditions: M. avium
[3] = tested on: MRSA (Staphylococcus aureus) BK12064; assay: MIC, MRSA BK12064
Bacillus cereus 4342 = assay: MIC, Bacillus cereus 4342
[4] = tested on: Staphylococcus epidermidis BK12799; assay: MIC, Staphylococcus epidermidis BK12799
[5] = tested on: Enterococcus sp., BK11936; assay: MIC, Enterococcus sp., BK11936
[6] = tested on: Serattia marcescens BK12426; assay: MIC, Serattia marcescens BK12426
[7] = tested on: Enterococcus sp., BK11940; assay: MIC, Enterococcus sp., BK11940
Escherichia coli BK12336 = assay: MIC, Escherichia coli BK12336
M. fortuitum = assay: MIC, M. fortuitum; assay type: cell-based; conditions: M. fortuitum
[8] = tested on: Klebsiella pneumonii BK12261; assay: MIC, Klebsiella pneumonii BK12261
[9] = tested on: Pseudomonas aeruginosa BK12347; assay: MIC, Pseudomonas aeruginosa BK12347
[10] = tested on: Serattia marcescens BK12421; assay: MIC, Serattia marcescens BK12421
[11] = tested on: clinical isolates of bacteria and fungus (including yeasts); assay: General antimicrobial activity, semi-quantitative score on collection of clinical isolates; assay type: cell-based; conditions: for General antimicrobial activity: semi-quantitative score from number of sensitive bacterial strains at 100 and 200 μM, deduced from number of sensitive bacterial species and average MIC; as to General antimicrobial activity: key: −: indicating no activity; +++++: indicating highest activity
Procedure: The growth inhibitory effect of a number of various ITC compounds were tested on large collection of clinical isolates of bacteria and fungus (including yeasts), in order to establish a systematic structure-activity relationship for the ITC compounds. […] To assess the average activity for an individual ITC compound, the semi-quantitative score was calculated for each compound based on the number of sensitive bacterial strains at concentrations of 100 and 200 μM.

M. scrofulaceum = assay: MIC, M. scrofulaceum; assay type: cell-based; conditions: M. scrofulaceum
M. tuberculosis W = assay: MIC, M. tuberculosis W; assay type: cell-based
Procedure: (§1) Next, several of the bifunctional ITC compounds were tested for their ability to inhibit the growth of some clinical isolates of Mycobacteria, the results of which are summarized in Table 3 below.

M. tuberculosis W4 = assay: MIC, M. tuberculosis W4; assay type: cell-based
Procedure: as §1

Shigella sp., BK 12440 = assay: MIC, Shigella sp., BK 12440; assay type: cell-based; conditions: Gram −, 24 hours of incubation
M. bovis BCG = assay: microbe, parasite or virus in culture; assay type: cell-based
M. tuberculosis H37Rv = assay: MIC, M. tuberculosis H37Rv; assay type: cell-based
Procedure: as §1

[12] = tested on: Enterobacter cloacii BK12313; assay: MIC, Enterobacter cloacii BK12313
[13] = tested on: Acinetobacter sp., BK12787; assay: MIC, Acinetobacter sp., BK12787
[14] = tested on: Acinetobacter sp., BK12786; assay: MIC, Acinetobacter sp., BK12786
[15] = tested on: Klebsiella pneumonii BK12260; assay: MIC, Klebsiella pneumonii BK12260
[16] = tested on: Streptococcus sp., BK12233; assay: MIC, Streptococcus sp., BK12233
M. tuberculosis AB = assay: MIC, M. tuberculosis AB; assay type: cell-based
Procedure: as §1

[17] = tested on: MRSA (Staphylococcus aureus) BK12060; assay: MIC, MRSA BK12060
Escherichia coli K12 = assay: MIC, Escherichia coli K12
M. tuberculosis CDC1551 = assay: MIC, M. tuberculosis CDC1551; assay type: cell-based
Procedure: as §1

Shigella sp., BK 12441 = assay: MIC, Shigella sp., BK 12441; assay type: cell-based; conditions: Gram −, 24 hours of incubation
M. tuberculosis 210 = assay: MIC, M. tuberculosis 210; assay type: cell-based
Procedure: as §1

[18] = tested on: Staphylococcus epidermidis BK12798; assay: MIC, Staphylococcus epidermidis BK12798
M. tuberculosis P = assay: MIC, M. tuberculosis P; assay type: cell-based
Procedure: as §1

M. cansassi = assay: MIC, M. cansassi; assay type: cell-based; conditions: M. cansassi
M. intracellularie = assay: MIC, M. intracellularie; assay type: cell-based; conditions: M. intracellularie
[19] = Pseudomonas aeruginosa BK12348, Gram −, 24 hours of incubation
[20] = MRSA BK12064, Gram +, 24 hours of incubation
[21] = Bacillus cereus 4342, Gram +, 24 hours of incubation
[22] = Staphylococcus epidermidis BK12799, Gram +, 24 hours of incubation
[23] = Enterococcus sp., BK11936, Gram +, 24 hours of incubation
[24] = Serattia marcescens BK12426, Gram −, 24 hours of incubation
[25] = Enterococcus sp., BK11940, Gram +, 24 hours of incubation
[26] = Escherichia coli BK12336, Gram −, 24 hours of incubation
[27] = Klebsiella pneumonii BK12261, Gram −, 24 hours of incubation
[28] = Pseudomonas aeruginosa BK12347, Gram −, 24 hours of incubation
[29] = Serattia marcescens BK12421, Gram −, 24 hours of incubation
[30] = Enterobacter cloacii BK12313, Gram −, 24 hours of incubation
[31] = Acinetobacter sp., BK12787, Gram −, 24 hours of incubation
[32] = Acinetobacter sp., BK12786, Gram −, 24 hours of incubation
[33] = Klebsiella pneumonii BK12260, Gram −, 24 hours of incubation
[34] = Streptococcus sp., BK12233, Gram +, grown on Tryptic Soy agar medium, 24 hours
[35] = MRSA BK12060, Gram +, 24 hours of incubation
[36] = Escherichia coli K12, Gram −, 24 hours of incubation
[37] = Staphylococcus epidermidis BK12798, Gram +, 24 hours of incubation
[38] = Staphylococcus aureus, MRSA, 24 h
[39] = Mycobacterium tuberculosis, read-out: MIC

## S=C=NCCCCCCCN=C=S [Compound 41, S═C═N—(CH2)7—N═C═S]
[1]; [19]
  MIC: 64 µg/mL (≈ 299 µM)
[2]
  MIC: 2 µg/mL (≈ 9.33 µM)
M. avium
  MIC: 32 µg/mL (≈ 149 µM)
[3]; [20]
  MIC: 4 µg/mL (≈ 18.7 µM)
Bacillus cereus 4342; [21]
  MIC: 2 µg/mL (≈ 9.33 µM)
[4]; [22]
  MIC: 1 µg/mL (≈ 4.67 µM)
[5]; [23]
  MIC: 8 µg/mL (≈ 37.3 µM)
[6]; [24]
  MIC: >64 µg/mL
[7]; [25]
  MIC: 8 µg/mL (≈ 37.3 µM)
Escherichia coli BK12336; [26]
  MIC: >64 µg/mL
M. fortuitum
  MIC: 32 µg/mL (≈ 149 µM)
[8]; [27]
  MIC: >64 µg/mL
[9]; [28]
  MIC: 64 µg/mL (≈ 299 µM)
[10]; [29]
  MIC: >64 µg/mL
[11]
  General antimicrobial activity: +++++
M. scrofulaceum
  MIC: 32 µg/mL (≈ 149 µM)
M. tuberculosis W
  MIC: 2 µg/mL (≈ 9.33 µM)
M. tuberculosis W4
  MIC: 2 µg/mL (≈ 9.33 µM)
Shigella sp., BK 12440
  MIC: 64 µg/mL (≈ 299 µM)
M. bovis BCG
  MIC: 2 µg/mL (≈ 9.33 µM)
M. tuberculosis H37Rv
  MIC: 2 µg/mL (≈ 9.33 µM)
[12]; [30]
  MIC: >64 µg/mL
[13]; [31]
  MIC: 32 µg/mL (≈ 149 µM)
[14]; [32]
  MIC: 32 µg/mL (≈ 149 µM)
[15]; [33]
  MIC: >64 µg/mL
[16]; [34]
  MIC: 1 to 2 µg/mL
M. tuberculosis AB
  MIC: 2 µg/mL (≈ 9.33 µM)
[17]; [35]
  MIC: 4 µg/mL (≈ 18.7 µM)
Escherichia coli K12; [36]
  MIC: >64 µg/mL
M. tuberculosis CDC1551
  MIC: 2 µg/mL (≈ 9.33 µM)
Shigella sp., BK 12441
  MIC: 64 µg/mL (≈ 299 µM)
M. tuberculosis 210
  MIC: 4 µg/mL (≈ 18.7 µM)
[18]; [37]
  MIC: 4 µg/mL (≈ 18.7 µM)
M. tuberculosis P
  MIC: 4 µg/mL (≈ 18.7 µM)
M. cansassi
  MIC: 8 µg/mL (≈ 37.3 µM)
M. intracellularie
  MIC: 32 µg/mL (≈ 149 µM)

## S=C=NCc1ccc(CN=C=S)cc1 [Compound 37]
[1]; Pseudomonas aeruginosa, BK12348, 24 h
  MIC: > 64 µg/mL
[2]; read-out: MIC
  MIC: 4 µg/mL (≈ 18.2 µM)
M. avium; Mycobacterium avium, read-out: MIC
  MIC: 32 µg/mL (≈ 145 µM)
[3]; [38]
  MIC: 4 µg/mL (≈ 18.2 µM)
Bacillus cereus 4342; Bacillus cereus, 4342, 24 h
  MIC: 2 µg/mL (≈ 9.08 µM)
[4]; Staphylococcus epidermidis, BK12799, 24 h
  MIC: 0.5 µg/mL (≈ 2.27 µM)
[5]; Enterococcus, 24 h
  MIC: 16 µg/mL (≈ 72.6 µM)
[6]; 24 h
  MIC: 64 µg/mL (≈ 290 µM)
[7]; Enterococcus, 24 h
  MIC: 16 µg/mL (≈ 72.6 µM)
Escherichia coli BK12336; Escherichia coli, BK12336, 24 h
  MIC: 8 to 16 µg/mL (≈ 36.3 to 72.6 µM)
M. fortuitum; Mycolicibacterium fortuitum, read-out: MIC
  MIC: 32 µg/mL (≈ 145 µM)
[8]; Klebsiella, BK12261, 24 h
  MIC: > 64 µg/mL
[9]; Pseudomonas aeruginosa, BK12347, 24 h
  MIC: > 64 µg/mL
[10]; 24 h
  MIC: 64 µg/mL (≈ 290 µM)
[11]; read-out: MIC values towards the microorganisms
  MIC: 1 to 4 µg/mL (≈ 4.54 to 18.2 µM)
[11]
  General antimicrobial activity: +++++
M. scrofulaceum; Mycobacterium scrofulaceum, read-out: MIC
  MIC: 16 µg/mL (≈ 72.6 µM)
M. tuberculosis W; [39]
  MIC: 1 µg/mL (≈ 4.54 µM)
M. tuberculosis W4; [39]
  MIC: 2 µg/mL (≈ 9.08 µM)
Shigella sp., BK 12440; read-out: MIC
  MIC: 16 µg/mL (≈ 72.6 µM)
M. bovis BCG; Mycobacterium tuberculosis variant bovis BCG, BCG
  MIC: 2 µg/mL (≈ 9.08 µM)
M. tuberculosis H37Rv; [39]
  MIC: 2 µg/mL (≈ 9.08 µM)
[12]; Enterobacter, BK12313, 24 h
  MIC: > 64 µg/mL
[13]; Acinetobacter, 24 h
  MIC: > 64 µg/mL
[14]; Acinetobacter, 24 h
  MIC: > 64 µg/mL
[15]; Klebsiella, BK12260, 24 h
  MIC: > 64 µg/mL
[16]; Streptococcus, 24 h
  MIC: < 0.5 µg/mL
M. tuberculosis AB; [39]
  MIC: 2 µg/mL (≈ 9.08 µM)
[17]; [38]
  MIC: 8 µg/mL (≈ 36.3 µM)
Escherichia coli K12; Escherichia coli, K12, 24 h
  MIC: 16 µg/mL (≈ 72.6 µM)
M. tuberculosis CDC1551; [39]
  MIC: 4 µg/mL (≈ 18.2 µM)
Shigella sp., BK 12441; read-out: MIC
  MIC: 16 µg/mL (≈ 72.6 µM)
M. tuberculosis 210; [39]
  MIC: 2 µg/mL (≈ 9.08 µM)
[18]; Staphylococcus epidermidis, BK12798, 24 h
  MIC: 0.5 µg/mL (≈ 2.27 µM)
M. tuberculosis P; [39]
  MIC: 2 µg/mL (≈ 9.08 µM)
M. cansassi; read-out: MIC
  MIC: 4 µg/mL (≈ 18.2 µM)
M. intracellularie; read-out: MIC
  MIC: 32 µg/mL (≈ 145 µM)

## S=C=NCCCCCCCCN=C=S [Compound 42, S═C═N—(CH2)8—N═C═S]
[1]; [19]
  MIC: >64 µg/mL
[2]
  MIC: 2 µg/mL (≈ 8.76 µM)
M. avium
  MIC: 32 µg/mL (≈ 140 µM)
[3]; [20]
  MIC: 4 µg/mL (≈ 17.5 µM)
Bacillus cereus 4342; [21]
  MIC: 2 µg/mL (≈ 8.76 µM)
[4]; [22]
  MIC: 2 µg/mL (≈ 8.76 µM)
[5]; [23]
  MIC: 8 µg/mL (≈ 35 µM)
[6]; [24]
  MIC: 64 µg/mL (≈ 280 µM)
[7]; [25]
  MIC: 8 µg/mL (≈ 35 µM)
Escherichia coli BK12336; [26]
  MIC: >64 µg/mL
M. fortuitum
  MIC: 32 µg/mL (≈ 140 µM)
[8]; [27]
  MIC: >64 µg/mL
[9]; [28]
  MIC: >64 µg/mL
[10]; [29]
  MIC: 64 µg/mL (≈ 280 µM)
[11]
  General antimicrobial activity: +++++
M. scrofulaceum
  MIC: 32 µg/mL (≈ 140 µM)
M. tuberculosis W
  MIC: 4 µg/mL (≈ 17.5 µM)
M. tuberculosis W4
  MIC: 4 µg/mL (≈ 17.5 µM)
Shigella sp., BK 12440
  MIC: >64 µg/mL
M. bovis BCG
  MIC: 4 µg/mL (≈ 17.5 µM)
M. tuberculosis H37Rv
  MIC: 4 µg/mL (≈ 17.5 µM)
[12]; [30]
  MIC: 64 µg/mL (≈ 280 µM)
[13]; [31]
  MIC: >64 µg/mL
[14]; [32]
  MIC: >64 µg/mL
[15]; [33]
  MIC: >64 µg/mL
[16]; [34]
  MIC: 1 to 2 µg/mL
M. tuberculosis AB
  MIC: 4 µg/mL (≈ 17.5 µM)
[17]; [35]
  MIC: 2 to 4 µg/mL
Escherichia coli K12; [36]
  MIC: >64 µg/mL
M. tuberculosis CDC1551
  MIC: 8 µg/mL (≈ 35 µM)
Shigella sp., BK 12441
  MIC: >64 µg/mL
M. tuberculosis 210
  MIC: 4 µg/mL (≈ 17.5 µM)
[18]; [37]
  MIC: 2 µg/mL (≈ 8.76 µM)
M. tuberculosis P
  MIC: 4 µg/mL (≈ 17.5 µM)
M. cansassi
  MIC: 4 µg/mL (≈ 17.5 µM)
M. intracellularie
  MIC: 32 µg/mL (≈ 140 µM)
